Data published in ChEMBL document CHEMBL3112450, “Synthesis and in vitro antitumor evaluation of primary amine substituted quinazoline linked benzimidazole” (Bioorg Med Chem Lett, 2014).

Columns and labels:
Assay type in all cases: functional
NCI-H23 [1] = test: Cytotoxicity against human NCI-H23 cells after 48 hrs by SRB assay; conditions: NCI-H23, 48 h
SK-MEL-2 [2] = test: Cytotoxicity against human SK-MEL-2 cells assessed as cell growth at 10^-7 M after 48 hrs by SRB assay; conditions: SK-MEL-2, 48 h, read-out: Activity
SNB-19 = test: Cytotoxicity against human SNB19 cells assessed as cell growth at 10^-7 M after 48 hrs by SRB assay; conditions: SNB-19, 48 h, read-out: Activity
[3] = Cytotoxicity against human Hs578T cells assessed as cell growth at 10^-8 M after 48 hrs by SRB assay; conditions: Hs-578T, read-out: Activity
MDA-MB-231 [4] = test: Cytotoxicity against human MDA-MB-231 cells assessed as cell growth at 10^-8 M after 48 hrs by SRB assay; conditions: MDA-MB-231, 48 h, read-out: Activity
[5] = Cytotoxicity against human OVCAR5 cells assessed as cell growth at 10^-4 M after 48 hrs by SRB assay; conditions: OVCAR-5, 48 h, read-out: Activity
SK-MEL-5 [6] = test: Cytotoxicity against human SK-MEL-5 cells assessed as cell growth at 10^-4 M after 48 hrs by SRB assay; conditions: SK-MEL-5, 48 h, read-out: Activity
MDA-MB-435 = test: Cytotoxicity against human MDA-MB-435 cells assessed as cell growth at 10^-4 M after 48 hrs by SRB assay; conditions: MDA-MB-435, 48 h, read-out: Activity
SF-295 = test: Cytotoxicity against human SF295 cells assessed as cell growth at 10^-4 M after 48 hrs by SRB assay; conditions: SF-295, 48 h, read-out: Activity
HCT-116 = test: Cytotoxicity against human HCT116 cells assessed as cell growth at 10^-4 M after 48 hrs by SRB assay; conditions: HCT-116, 48 h, read-out: Activity
SK-MEL-2 [7] = test: Cytotoxicity against human SK-MEL-2 cells assessed as cell growth at 10^-8 M after 48 hrs by SRB assay; conditions: SK-MEL-2, 48 h, read-out: Activity
CCRF-CEM = test: Cytotoxicity against human CCRF-CEM cells assessed as cell growth at 10^-4 M after 48 hrs by SRB assay; conditions: read-out: Activity
SF-268 = test: Cytotoxicity against human SF268 cells assessed as cell growth at 10^-8 M after 48 hrs by SRB assay; conditions: SF-268, 48 h, read-out: Activity
KM12 = test: Cytotoxicity against human KM12 cells assessed as cell growth at 10^-8 M after 48 hrs by SRB assay; conditions: KM12, 48 h, read-out: Activity
HT-29 = test: Cytotoxicity against human HT-29 cells assessed as cell growth at 10^-8 M after 48 hrs by SRB assay; conditions: HT-29, 48 h, read-out: Activity
NCI-H322M = test: Cytotoxicity against human NCI-H322M cells assessed as cell growth at 10^-8 M after 48 hrs by SRB assay; conditions: read-out: Activity
NCI-H23 [8] = test: Cytotoxicity against human NCI-H23 cells assessed as cell growth at 10^-8 M after 48 hrs by SRB assay; conditions: NCI-H23, 48 h, read-out: Activity
NCI-H226 = test: Cytotoxicity against human NCI-H226 cells assessed as cell growth at 10^-8 M after 48 hrs by SRB assay; conditions: NCI-H226, 48 h, read-out: Activity
HOP-62 = test: Cytotoxicity against human HOP62 cells assessed as cell growth at 10^-8 M after 48 hrs by SRB assay; conditions: HOP-62, 48 h, read-out: Activity
RPMI-8226 = test: Cytotoxicity against human RPMI8226 cells assessed as cell growth at 10^-8 M after 48 hrs by SRB assay; conditions: RPMI-8226, 48 h, read-out: Activity
K562 = test: Cytotoxicity against human K562 cells assessed as cell growth at 10^-8 M after 48 hrs by SRB assay; conditions: K562, 48 h, read-out: Activity
T47D = test: Cytotoxicity against human T47D cells after 48 hrs by SRB assay
RXF 393 = test: Cytotoxicity against human RXF393 cells after 48 hrs by SRB assay; conditions: RXF 393, 48 h
SK-MEL-5 [9] = test: Cytotoxicity against human SK-MEL-5 cells after 48 hrs by SRB assay; conditions: SK-MEL-5, 48 h
Malme-3M = test: Cytotoxicity against human MALME-3M cells after 48 hrs by SRB assay
SW-620 = test: Cytotoxicity against human SW620 cells after 48 hrs by SRB assay; conditions: SW-620, 48 h
COLO 205 = test: Cytotoxicity against human COLO205 cells after 48 hrs by SRB assay; conditions: COLO 205, 48 h
DU-145 = test: Cytotoxicity against human DU145 cells assessed as cell growth at 10^-6 M after 48 hrs by SRB assay; conditions: DU-145, 48 h, read-out: Activity
TK-10 = test: Cytotoxicity against human TK10 cells assessed as cell growth at 10^-6 M after 48 hrs by SRB assay; conditions: TK-10, 48 h, read-out: Activity
IGROV-1 = test: Cytotoxicity against human IGROV1 cells assessed as cell growth at 10^-6 M after 48 hrs by SRB assay; conditions: IGROV-1, 48 h, read-out: Activity
HOP-92 = test: Cytotoxicity against human HOP92 cells assessed as cell growth at 10^-6 M after 48 hrs by SRB assay; conditions: HOP-92, 48 h, read-out: Activity
HL-60(TB) = test: Cytotoxicity against human HL-60(TB) cells assessed as cell growth at 10^-6 M after 48 hrs by SRB assay; conditions: HL-60, 48 h, read-out: Activity
MDA-MB-468 = test: Cytotoxicity against human MDA-MB-468 cells assessed as cell growth at 10^-7 M after 48 hrs by SRB assay; conditions: MDA-MB-468, 48 h, read-out: Activity
MDA-MB-231 [10] = test: Cytotoxicity against human MDA-MB-231 cells assessed as cell growth at 10^-7 M after 48 hrs by SRB assay; conditions: MDA-MB-231, 48 h, read-out: Activity
SN12C = test: Cytotoxicity against human SN12C cells assessed as cell growth at 10^-7 M after 48 hrs by SRB assay; conditions: read-out: Activity
786-0 = test: Cytotoxicity against human 786-0 cells assessed as cell growth at 10^-7 M after 48 hrs by SRB assay; conditions: 786-0, 48 h, read-out: Activity
[11] = Cytotoxicity against human NCI-ADR-RES cells assessed as cell growth at 10^-7 M after 48 hrs by SRB assay; conditions: read-out: Activity

Compound: C=CCn1c(C)nc2ccc(Nc3nc(Nc4ccc5nc(C)n(CC=C)c5c4)c4ccccc4n3)cc21
- GI50 (NCI-H23 [1]): 1720 nM
- TGI (NCI-H23 [1]): 3230 nM
- growth at 0.1 µM (SK-MEL-2 [2]): 99%
- growth at 0.1 µM (SNB-19): 92%
- growth at 0.01 µM [3]: 95%
- growth at 0.01 µM (MDA-MB-231 [4]): 92%
- growth at 100 µM [5]: -75%
- growth at 100 µM (SK-MEL-5 [6]): -24%
- growth at 100 µM (MDA-MB-435): -5%
- growth at 100 µM (SF-295): -21%
- growth at 100 µM (HCT-116): 1%
- growth at 0.01 µM (SK-MEL-2 [7]): 96%
- growth at 100 µM (CCRF-CEM): 2%
- growth at 0.01 µM (SF-268): 90%
- growth at 0.01 µM (KM12): 96%
- growth at 0.01 µM (HT-29): 102%
- growth at 0.01 µM (NCI-H322M): 89%
- growth at 0.01 µM (NCI-H23 [8]): 96%
- growth at 0.01 µM (NCI-H226): 90%
- growth at 0.01 µM (HOP-62): 99%
- growth at 0.01 µM (RPMI-8226): 99%
- growth at 0.01 µM (K562): 96%
- GI50 (T47D): 1540 nM
- TGI (T47D): 3180 nM
- GI50 (RXF 393): 1800 nM
- TGI (RXF 393): 3280 nM
- GI50 (SK-MEL-5 [9]): 1650 nM
- TGI (SK-MEL-5 [9]): 3030 nM
- GI50 (Malme-3M): 1900 nM
- TGI (Malme-3M): 3680 nM
- GI50 (SW-620): 1500 nM
- TGI (SW-620): 2940 nM
- GI50 (COLO 205): 1430 nM
- TGI (COLO 205): 2740 nM
- growth at 1 µM (DU-145): 104%
- growth at 1 µM (TK-10): 116%
- growth at 1 µM (IGROV-1): 99%
- growth at 1 µM (HOP-92): 70%
- growth at 1 µM (HL-60(TB)): 95%
- growth at 0.1 µM (MDA-MB-468): 92%
- growth at 0.1 µM (MDA-MB-231 [10]): 87%
- growth at 0.1 µM (SN12C): 94%
- growth at 0.1 µM (786-0): 98%
- growth at 0.1 µM [11]: 95%
